Results taken from US20170143712A1, “Methods of Treating Cancers, Immune and Autoimmune Diseases, and Inflammatory Diseases Based on BTK Occupancy and BTK Resynthesis Rate” (Acerta Pharma B.V., priority 2014, published 2017).

Tests used:
[1] = biological target: T1, BTK (Homo sapiens, UniProt Q06187); assay: PK/PD model fit and simulation of BTK occupancy and pBTK inhibition; settings: for BTK resynthesis rate (modeled estimate): 15 mg QD
[2] = tested on: S6 phosphorylation; assay: Basal and anti-IgM induced S6 phosphorylation in splenocytes after oral dosing of mice; assay type: in vivo, mouse; settings: single oral 25 mg/kg; rank order Formula (II)>ibrutinib>Formula (XVII)
Method: B cell stimulation through the B cell receptor (BCR) with antibodies (e.g., anti-IgM) results in the activation of BTK and subsequent cellular changes, including the upregulation of various cell surface receptors. Measuring the inhibition of BCR induced protein phosphorylation downstream of Btk, and the inhibition of surface receptor upregulation provides a way to assess the Btk inhibitor activity. In the first study, the BTK target occupancy in splenocytes was measured over time, providing evidence for BTK resynthesis in the tissue compartment of interest.
Mice were sacrificed at 3, 6, 12, 18, and 24 hours after treatment with the BTK inhibitors (FIG. 27A, FIG. 27B, and FIG. 27C). Spleens were harvested and splenocyte preparations were made for flow cytometry analysis of B cell functions. Fresh or cryopreserved splenocytes were cultured with a-IgM to stimulate BCR, and the up-regulation of CD69, an early functional marker of B cell activation, was analyzed by flow cytometry.
A downstream marker of BTK activity, S6 phosphorylation, was also monitored in this study. […] In a second study, the effects of another inhibitor of BTK that covalently inactivates the kinase, Formula (XXI), were compared with Formula (II) to evaluate the return of BCR function and B cell activation, as illustrated in FIG. 29A and FIG. 29B.

[3] = biological target: T1, BTK; assay: Per cell BTK protein level in CD19+/CD5+ CLL tumor cells (flow cytometry); assay type: in vivo; settings: 100 mg BID, after 4 weeks of treatment
Method: Peripheral blood samples were obtained and BTK protein levels were evaluated in CD19+/CD5+ tumor cells by flow cytometry.

[4] = tested on: anti-KLH IgM and IgG antibody response; assay: T cell dependent antibody response (TDAR) to KLH in rats; assay type: in vivo, rat; settings: 1, 2.5 and 5 mg/kg/day oral gavage, KLH on Day 50
Method: Rats were treated with oral gavage administration of vehicle or Formula (II) at doses of 1, 2.5 and 5 mg/kg/day for 91 days. Sixteen rats per gender were evaluated for development of T cell dependent antibody response (TDAR), with primary immunization on Day 50 with keyhole limpet hemocyanin (KLH) by subcutaneous injection. Dosing continued and on Days 57, 64, and 71, blood samples were collected via the sublingual vein into tubes without anticoagulant and allowed to clot at room temperature for at least 30 minutes, then the serum was divided into 4 approximately equal aliquots and stored frozen at approximately −60 to −90° C. Anti-KLH IgM and IgG antibody levels were determined using an enzyme-linked immunosorbent assay (ELISA). FIG. 41A, FIG. 41B, FIG. 41C, FIG. 41D, FIG. 41E, FIG. 41F, FIG. 42A, FIG. 42B, FIG. 42C, FIG. 42D, FIG. 42E, and FIG. 42F illustrate the trends in anti-KLH antibody responses among male and female rats.

[5] = tested on: BCR signaling through BTK; assay: Anti-IgM induced CD86 and CD69 on splenocyte B cells of CIA mice; assay type: in vivo, mouse; settings: splenocytes 3 hr after last dosing on day 14
Method: (§1) FIG. 45 illustrates changes in a functional measure of BCR signalling through the CD86 marker. Mouse splenocytes were isolated from spleens from mice that were part of the mouse CIA study semi-therapeutic protocol, 3 hr after the last dosing on day 14 of the treatment and cryopreserved. After thawing, inhibition of anti-IgM-induced PD markers CD86 and CD69 on mouse splenocyte B cells were measured. Error bars represent the standard deviation for the 3 sets of splenocytes analyzed.
as §1, with “FIG. 46” for “FIG. 45”, “the CD69” for “the CD86”
Inhibition of the BCR signaling through BTK was evaluated by ex vivo stimulation of splenocytes using IgM and evaluation of CD86 and CD69 as functional responses of BCR stimulation.

[6] = tested on: psoriasis; assay: Clinical observation of psoriasis in CLL/SLL study subjects; assay type: in vivo, human
Description: Clinical studies have shown that targeting the BCR signaling pathway by inhibiting BTK produces significant clinical benefit in patients with various types of leukemias and lymphomas. Formula (II) achieves significant oral bioavailability and potency, and has favorable preclinical characteristics, as described above. The purpose of this study is to evaluate the safety and efficacy of the second generation BTK inhibitor of Formula (II) in treating subjects with chronic lymphocytic leukemia (CLL) and small lymphocytic lymphoma (SLL). The primary objectives of the clinical study are as follows: […] The secondary objective of the clinical study is to evaluate tumor responses in patients treated with Formula (II). In addition, effects of Formula (II) on other patient characteristics, such as dermatoses, were evaluated for particular patients enrolled in the study. This study is a multicenter, open-label, nonrandomized, sequential group, dose escalation study. The following dose cohorts are evaluated: The study scheme is a sequential cohort escalation. Each cohort consists of six subjects. The sample size of the study is 24 to 36 subjects, depending on dose escalation into subsequent cohorts. Cohort 1 (N=6) consists of Formula (II), 100 mg QD for 28 days. Cohort 2 (N=6) consists of Formula (II), 175 mg QD for 28 days. Cohort 3 (N=6) consists of Formula (II), 250 mg QD for 28 days. Cohort 4 (N=6) consists of Formula (II), 350 mg QD for 28 days. Cohort 5 (N=6) consists of Formula (II), 450 mg QD for 28 days. Cohort 6 (N=6) consists of Formula (II), at a dose to be determined QD for 28 days. The dose level for Cohort 6 will be determined based on the safety and efficacy of Cohorts 1 to 5, and will not exceed 900 mg/day. […] Treatment with oral Formula (II) may be continued for greater than 28 days until disease progression or an unacceptable drug-related toxicity occurs. The dosage form and strength of Formula (II) used in the clinical study is a hard gelatin capsules prepared using standard pharmaceutical grade excipients (microcrystalline cellulose) and containing 25 mg of Formula (II) each. The color of the capsules is Swedish orange. The route of administration is oral (per os, or PO). […] They were treated over time with several systemic therapies including etanercept, adalimumab, and a 2010 clinical study of an experimental agent. They initially responded to etanerceptbut continued to have flares, and was under the care of a dermatologist prior to enrolling in the clinical study. Their treatment history included topical medications, and recently included Taclonex (calcipotriene/betamethasone diproprionate), without much improvement in skin lesions.

T1 sequence (Q06187 whole entry): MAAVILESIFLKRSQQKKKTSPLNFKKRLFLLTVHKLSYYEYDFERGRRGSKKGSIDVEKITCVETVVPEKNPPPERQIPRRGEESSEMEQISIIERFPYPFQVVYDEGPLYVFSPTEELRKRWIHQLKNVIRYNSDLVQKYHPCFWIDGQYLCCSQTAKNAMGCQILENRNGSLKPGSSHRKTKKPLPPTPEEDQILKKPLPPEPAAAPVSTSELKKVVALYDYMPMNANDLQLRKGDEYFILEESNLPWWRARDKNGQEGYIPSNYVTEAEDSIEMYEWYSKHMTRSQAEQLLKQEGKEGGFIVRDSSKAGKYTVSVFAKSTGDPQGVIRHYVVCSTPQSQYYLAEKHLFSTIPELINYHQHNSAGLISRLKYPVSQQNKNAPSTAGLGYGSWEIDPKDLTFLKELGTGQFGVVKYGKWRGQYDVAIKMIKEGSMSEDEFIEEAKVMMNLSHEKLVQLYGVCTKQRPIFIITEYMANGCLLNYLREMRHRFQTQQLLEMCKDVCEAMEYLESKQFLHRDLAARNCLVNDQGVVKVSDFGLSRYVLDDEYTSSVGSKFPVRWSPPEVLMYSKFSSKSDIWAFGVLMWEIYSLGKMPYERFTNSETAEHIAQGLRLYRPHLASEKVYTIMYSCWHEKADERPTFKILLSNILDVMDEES

## CC#CC(=O)N1CCC[C@H]1c1nc(-c2ccc(C(=O)Nc3ccccn3)cc2)c2c(N)nccn12 [Formula (II), (S)-4-(8-amino-3-(1-(but-2-ynoyl)pyrrolidin-2-yl)imidazo[1,5-a]pyrazin-1-yl)-N-(pyridin-2-yl)benzamide]
[1]; 15 mg QD model fit
  k4,1 (model rate constant): 0.91
[1]; after the first 48 hours
  BTK resynthesis rate (modeled estimate): 0.04
[1]; first 48 hours
  BTK resynthesis rate (modeled estimate): 0.1
[2]
  basal state and anti-IgM induced S6 phosphorylation: inhibited both basal state and anti-IgM induced S6 phosphorylation
[3]
  decrease in BTK protein expression per cell (median, of pre-dose values): 26%
[4]
  anti-KLH IgM and IgG production: significant pharmacological effects on the magnitude of IgM and IgG production
[5]
  BCR-mediated signaling (anti-IgM induced CD86 and CD69): dose-responsive decreases in BCR-mediated signaling
[6]; Subject 1, CLL patient with severe psoriasis, 10 month visit
  Psoriasis Area and Severity Index achieved (PASI90): 90%
[6]; Subject 1, Day 28 of treatment
  serum IL-6, MIP-1α, MCP-1β, TNFA, TARC, CXCLS, CD40L, TRAIL, EGF, CXCL1 relative to baseline: decreased
[6]; Subject 1, by Cycle 10 (10 months on treatment)
  psoriatic skin disease: their skin was clear
[6]; Subject 2, after initiation of treatment
  moderate-to-severe plaque psoriasis: cleared quickly
